In patent publication US20230399312A1, “SUBSTITUTED PYRIMIDINES AND METHODS OF USE” (THERAVANCE BIOPHARMA R&D IP, LLC, priority 2020, published 2023):

Columns and labels:
[1] = target: T1, recombinant human ALK5 (TGF-βR1) protein (Homo sapiens, UniProt P36897); experiment: Biochemical ALK5 (TGF-βR1) assay to measure pKi (LANCE Ultra ULight kinase assay); settings: apparent pKi, converted from pIC50 by Cheng-Prusoff
T1 construct: purchased Life Technologies PR9075A
T1 sequence (P36897 34-503): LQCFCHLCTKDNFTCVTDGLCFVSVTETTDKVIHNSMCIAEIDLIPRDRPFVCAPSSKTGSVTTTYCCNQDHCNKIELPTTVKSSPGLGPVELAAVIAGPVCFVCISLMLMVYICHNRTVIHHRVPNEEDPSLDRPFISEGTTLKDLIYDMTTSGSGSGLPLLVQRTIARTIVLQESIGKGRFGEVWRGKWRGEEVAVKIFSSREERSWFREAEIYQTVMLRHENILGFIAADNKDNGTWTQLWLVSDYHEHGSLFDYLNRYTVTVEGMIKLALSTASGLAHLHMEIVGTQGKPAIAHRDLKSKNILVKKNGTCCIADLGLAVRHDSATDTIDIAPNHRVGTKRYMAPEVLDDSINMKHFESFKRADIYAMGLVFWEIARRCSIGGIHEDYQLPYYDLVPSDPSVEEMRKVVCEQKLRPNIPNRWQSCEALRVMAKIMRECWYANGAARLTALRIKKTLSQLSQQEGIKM
How it was run: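 Europium TR-FRET kinase assay: the enzyme is exposed to compound for 60 min at room temperature, and reaction with ATP runs 60 min at 37 °C. Percent inhibition relative to DMSO and SD-208 controls gives pIC50, which is converted to pKi.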

[2] = system: TGF-β-stimulated SMAD3 phosphorylation in BEAS-2B cells; experiment: Cellular ALK5 potency assay, inhibition of TGF-β stimulated pSMAD3 formation in BEAS-2B cells; type: cell-based; settings: Homo sapiens, pSMAD3, TGF-β 10 ng/mL, read-out: BEAS2B pIC50 (converted)
How it was run: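 BEAS-2B cells, HBSS/25 mM HEPES/1% BSA buffer; cpd 1 h, 37 °C; TGF-β 10 ng/mL final, 30 min; lysis, AlphaLISA pSMAD3 read next day. pIC50 vs stimulated no-compound baseline.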

Ki [1] [nM]	Structure (SMILES)	IC50 [2] [nM]
0.0398 to 0.316	CC[C@H](C)OC(=O)C1CN(c2ccc(Nc3nccc(Nc4ccnc(-c5cccc(C)n5)n4)n3)cc2)CCN1 (stereo partly drawn) [Compound 113, [(1S)-1-methylpropyl] 4-[4-[[4-[[2-(6-methyl-2-pyridyl)pyrimidin-4-yl]amino]pyrimidin-2-yl]amino]phenyl]piperazine-2-carboxylate]	25.1 to 158
0.0398 to 0.316	Cc1nc(-c2nccc(Nc3ccnc(Nc4ccc(N5CCC(N6CCN(C)CC6)CC5)cc4)n3)n2)ccc1F [Compound 542, N4-[2-(5-fluoro-6-methyl-2-pyridyl)pyrimidin-4-yl]-N2-[4-[4-(4-methylpiperazin-1-yl)-1-piperidyl]phenyl]pyrimidine-2,4-diamine]	25.1 to 158
0.0398 to 0.316	Cc1cccc(-c2nccc(Nc3ccnc(Nc4ccc(N5CCN(C(CCO)C(=O)O)CC5)cc4)n3)n2)n1 (centres unmarked) [Compound 448, 4-hydroxy-2-[4-[4-[[4-[[2-(6-methyl-2-pyridyl)pyrimidin-4-yl]amino]pyrimidin-2-yl]amino]phenyl]piperazin-1-yl]butanoic acid]	25.1 to 158
0.0398 to 0.316	Cc1cccc(-c2nccc(Nc3ccnc(Nc4ccc(C(=O)N5CCN(C)CC5)cc4)n3)n2)n1 [Compound 434, (4-methylpiperazin-1-yl)-[4-[[4-[[2-(6-methyl-2-pyridyl)pyrimidin-4-yl]amino]pyrimidin-2-yl]amino]phenyl]methanone]	25.1 to 158
0.0398 to 0.316	Cc1cccc(-c2nccc(Nc3ccnc(Nc4csc(C(=O)O[C@H]5C[C@@H](N)C5)c4)n3)n2)n1 [Compound 631, (3-aminocyclobutyl) 4-[[4-[[2-(6-methyl-2-pyridyl)pyrimidin-4-yl]amino]pyrimidin-2-yl]amino]thiophene-2-carboxylate]	25.1 to 158
0.0398 to 0.316	Cc1cccc(-c2nccc(Nc3ccnc(Nc4ccc(CN5C[C@H](C)NC[C@H]5C)cc4)n3)n2)n1 [Compound 376, N2-[4-[[(2R,5S)-2,5-dimethylpiperazin-1-yl]methyl]phenyl]-N4-[2-(6-methyl-2-pyridyl)pyrimidin-4-yl]pyrimidine-2,4-diamine]	25.1 to 158
0.0398 to 0.316	Cc1cccc(-c2nccc(Nc3ccnc(Nc4ccc(CCN(C)C)cc4)n3)n2)n1 [Compound 253, N2-[4-[2-(dimethylamino)ethyl]phenyl]-N4-[2-(6-methyl-2-pyridyl)pyrimidin-4-yl]pyrimidine-2,4-diamine]	25.1 to 158
0.0398 to 0.316	Cc1cccc(-c2nc(Nc3ccnc(Nc4ccc(C(=O)N5CCNCC5)cc4)n3)c3cccn3n2)n1 [Compound 1038, [4-[[4-[[2-(6-methyl-2-pyridyl)pyrrolo[2,1-f][1,2,4]triazin-4-yl]amino]pyrimidin-2-yl]amino]phenyl]-piperazin-1-yl-methanone]	25.1 to 158
0.0398 to 0.316	Cc1cccc(-c2nc(Nc3ccnc(Nc4cc(C(=O)O)cs4)n3)c3cccn3n2)n1 [Compound 1025, 5-[[4-[[2-(6-methyl-2-pyridyl)pyrrolo[2,1-f][1,2,4]triazin-4-yl]amino]pyrimidin-2-yl]amino]thiophene-3-carboxylic acid]	25.1 to 158
0.0398 to 0.316	Cc1cccc(-c2nc(Nc3ccnc(Nc4ccc(C(=O)NC5CNC5)cc4)n3)c3cccn3n2)n1 [Compound 1034, N-(azetidin-3-yl)-4-[[4-[[2-(6-methyl-2-pyridyl)pyrrolo[2,1-f][1,2,4]triazin-4-yl]amino]pyrimidin-2-yl]amino]benzamide]	25.1 to 158
3.98 to 31.6	Cc1cccc(-c2nccc(Nc3ccnc(Nc4ncc(C(=O)OCC5CNC5)s4)n3)n2)n1 [Compound 338, azetidin-3-ylmethyl 2-((4-((2-(6-methylpyridin-2-yl)pyrimidin-4-yl)amino)pyrimidin-2-yl)amino)thiazole-5-carboxylate]	200 to 1260
0.0398 to 0.316	Cc1cccc(-c2nccc(Nc3ccnc(Nc4csc(C(=O)OC[C@H]5CC[C@@H](N)CC5)c4)n3)n2)n1 [Compound 563, (4-aminocyclohexyl)methyl 4-[[4-[[2-(6-methyl-2-pyridyl)pyrimidin-4-yl]amino]pyrimidin-2-yl]amino]thiophene-2-carboxylate]	200 to 1260
0.0398 to 0.316	Cc1cccc(-c2nccc(Nc3ccnc(Nc4ccc(N5CCNCC5)c(C)c4)n3)n2)n1 [Compound 515, N2-(3-methyl-4-piperazin-1-yl-phenyl)-N4-[2-(6-methyl-2-pyridyl)pyrimidin-4-yl]pyrimidine-2,4-diamine]	25.1 to 158
0.0398 to 0.316	Cc1cccc(-c2nccc(Nc3ccnc(Nc4csc(NC(=O)C5CCNCC5)c4)n3)n2)n1 [Compound 452, N-(4-((4-((2-(6-methylpyridin-2-yl)pyrimidin-4-yl)amino)pyrimidin-2-yl)amino)thiophen-2-yl)piperidine-4-carboxamide]	≤ 20
0.0398 to 0.316	Cc1cccc(-c2nccc(Nc3ccnc(Nc4ccc(F)c(CN5CCNCC5)c4)n3)n2)n1 [Compound 111, N2-[4-fluoro-3-(piperazin-1-ylmethyl)phenyl]-N4-[2-(6-methyl-2-pyridyl)pyrimidin-4-yl]pyrimidine-2,4-diamine]	25.1 to 158
0.0398 to 0.316	Cc1cccc(-c2nccc(Nc3ccnc(Nc4ccc(C(=O)OCC5CNC5)nc4)n3)n2)n1 [Compound 545, azetidin-3-ylmethyl 5-((4-((2-(6-methylpyridin-2-yl)pyrimidin-4-yl)amino)pyrimidin-2-yl)amino)picolinate]	25.1 to 158
0.398 to 3.16	Cc1cccc(-c2nccc(Nc3ccnc(Nc4ccc(C(=O)O)cc4)n3)n2)n1 [Compound 406, 4-[[4-[[2-(6-methyl-2-pyridyl)pyrimidin-4-yl]amino]pyrimidin-2-yl]amino]benzoic acid]	200 to 1260
0.0398 to 0.316	Cc1cccc(-c2nccc(Nc3ccnc(Nc4ccc(NC(=O)C5(O)CNC5)cc4)n3)n2)n1 [Compound 180, 3-hydroxy-N-[4-[[4-[[2-(6-methyl-2-pyridyl)pyrimidin-4-yl]amino]pyrimidin-2-yl]amino]phenyl]azetidine-3-carboxamide]	25.1 to 158
0.0398 to 0.316	Cc1cccc(-c2nccc(Nc3ccnc(Nc4ccc(CN5CCCC(C(=O)N6CCNCC6)C5)cc4)n3)n2)n1 (centres unmarked) [Compound 112, [1-[[4-[[4-[[2-(6-methyl-2-pyridyl)pyrimidin-4-yl]amino]pyrimidin-2-yl]amino]phenyl]methyl]-3-piperidyl]-piperazin-1-yl-methanone]	25.1 to 158
0.398 to 3.16	Cc1cccc(-c2nccc(Nc3ccnc(Nc4ccc(N5CCNCC5CC(=O)OCC5CNC5)cc4)n3)n2)n1 (centres unmarked) [Compound 402, azetidin-3-ylmethyl 2-[1-[4-[[4-[[2-(6-methyl-2-pyridyl)pyrimidin-4-yl]amino]pyrimidin-2-yl]amino]phenyl]piperazin-2-yl]acetate]	200 to 1260
0.398 to 3.16	Cc1cccc(-c2nccc(Nc3ccnc(Nc4cncc(C(=O)OCC5CNC5)c4)n3)n2)n1 [Compound 548, azetidin-3-ylmethyl 5-[[4-[[2-(6-methyl-2-pyridyl)pyrimidin-4-yl]amino]pyrimidin-2-yl]amino]pyridine-3-carboxylate]	25.1 to 158
3.98 to 31.6	Cc1cccc(-c2nccc(Nc3ccnc(Nc4cc(C(=O)OC5CCNCC5)ccn4)n3)n2)n1 [Compound 633, 4-piperidyl 2-[[4-[[2-(6-methyl-2-pyridyl)pyrimidin-4-yl]amino]pyrimidin-2-yl]amino]pyridine-4-carboxylate]	200 to 1260
